From US20060216699A1, “Peptides for the detection of HIV-1 group O” (priority 1998, published 2006)

Legend:
[1] = system: anti-HIV-1 group O antibodies present in human serum; assay: Antibody capture format: peptide on solid phase, bound antibody detected with peptide-HRP conjugate; format: binding; settings: same peptide as Ag and as HRP conjugate (1:100)
Experimental: In peptide 147-5, the N-terminal glycine was added to function as a spacer group, while the arginine in position 2 was added to enhance the solubility of the peptide in aqueous buffers. Both of these peptides were evaluated for their ability to be recognized by HIV-1 group O serum samples in an antibody capture format. In general, in such an assay, a peptide is bound to a solid phase and bivalent antibody presents in a sample binds to the peptide linked thereto. Bound antibody is subsequently detected using a conjugate made of the peptide in question coupled to horseradish peroxidase. The peptide-HRP conjugate binds to antibody which in turn is bound to the solid phase linked peptide. Methods suitable for preparing such conjugates may be found readily in the scientific literature and are well known to those versed in the art.
Microwell plates were pre-coated with either peptide 147-4 or 147-5. A dilution of a serum sample was then incubated for 1 hour at 37° C., after which the plate was washed extensively. A 1:100 dilution of either peptide 147-4 or 147-5 conjugated to HRP was then added and allowed to incubate for an additional hour at 37° C. Following this incubation, the plates were again thoroughly washed. The presence of bound conjugate was detected by addition of substrate for HRP (O-phenylenediamine) and H2O2.
The peptides were evaluated for their ability to be recognized by anti-HIV-1 group O antibodies present in human serum from infected individuals. All group O samples were confirmed to be positive for HIV-1 group O by reverse transcriptase-polymerase chain reaction (RT-PCR) amplification of viral gp41 sequences using O-specific primers. The identity of the PCR product was further confirmed by DNA sequencing.

[2] = system: antibodies to HIV-1 group O; assay: Chemiluminescent ELISA: serially diluted peptide on streptavidin-coated wells, serum ODS007b 1:60, anti-human IgG:HRP, luminol; format: binding; settings: serum ODS007b 1:60
Experimental: To compare the performance of peptide 147 to another genuine group O sequence, the peptide corresponding to the ANT70 sequence was synthesized (peptide 80). Peptides 147 and 80 were dissolved at the same concentration, serially diluted, and bound to streptavidin-coated wells. A 1:60 dilution of serum sample ODS007b (see Table 3) was added to all wells and incubated. After washing, an anti-human IgG:HRP conjugate was added, incubated, and the wells again thoroughly washed. In this case, a chemiluminescent substrate was used, consisting of luminol and a peracid salt. The emitted light was quantified using a luminometer. The results are tabulated in Table 4 and shown graphically in FIG. 2.

group O antibody = assay: ELISA with recombinant antigen coated at 0.5 μg/ml, group O sera, HRP-labeled mouse anti-human IgG; format: binding
Experimental: Performance of group M/group O “mosaic” constructs for group O antibody detection. The protein expressed as described was coated at a concentration of 0.5 μg/ml into the wells of microtiter plates for evaluation. Following coating of the protein, any remaining binding sites on the plastic were block with bovine serum albumin. Dilutions of group O sera were then tested for their ability to recognize the recombinant antigen. Bound antibodies were detected by incubation with HRP-labeled mouse anti-human IgG conjugate, and the bound conjugate was subsequently detected by addition of OPD and H2O2.

type B sample = assay: ELISA with recombinant antigen coated at 0.5 μg/ml, type B sample; format: binding, human

For “EQQRLNSWGCKGRIICYTSARWH (HIV Consensus) [peptide 147-4, variant of peptide 147]”, the “Optical Density (OD)492” value ([1]; negative control) was 0.010 OD, the “Optical Density (OD)492” value ([1]; sample ODS001 (1:200)) was over 2.500 OD and the “Optical Density (OD)492” value ([1]; sample ODS002 (1:175)) was 0.785 OD. For the same molecule, the “Optical Density (OD)492” value ([1]; sample ODS006 (1:100)) was 0.133 OD and the “Optical Density (OD)492” value ([1]; sample ODS007 (1:1,500)) was 0.241 OD.

“GRETLMQDQQRLNSWGCKGRIICYTSARWH (HIV Consensus) [peptide 147-5, longer variant of peptide 147 with N-terminal glycine spacer and arginine to enhance solubility]” was tested, and the “Optical Density (OD)492” value ([1]; negative control) was 0.022 OD, the “Optical Density (OD)492” value ([1]; sample ODS001 (1:200)) was over 2.500 OD and the “Optical Density (OD)492” value ([1]; sample ODS002 (1:175)) was 1.343 OD. The “Optical Density (OD)492” value ([1]; sample ODS006 (1:100)) was 0.266 OD and the “Optical Density (OD)492” value ([1]; sample ODS007 (1:1,500)) was 0.316 OD.

Molecule “NQQLLSLWGCKGKLVCYTSVKWN (Human immunodeficiency virus type 1) [peptide 80, reference compound]” has a luminescent units ([2]; peptide 0.020 ug/ml) of 0.387 luminescent units, a luminescent units ([2]; peptide 0.039 ug/ml) of 0.376 luminescent units and a luminescent units ([2]; peptide 0.078 ug/ml) of 0.621 luminescent units. For the same molecule, the luminescent units ([2]; peptide 0.156 ug/ml) was 1.288 luminescent units, the luminescent units ([2]; peptide 0.313 ug/ml) was 2.294 luminescent units and the luminescent units ([2]; peptide 0.625 ug/ml) was 2.854 luminescent units. For the same molecule, the luminescent units ([2]; peptide 1.250 ug/ml) was 2.908 luminescent units and the luminescent units ([2]; peptide 2.500 ug/ml) was 1.821 luminescent units.

B1: DHFR-hES-MH: truncated dihydrofolate reductase fusion, mosaic group M/group O gp41 recombinant antigen with myc sequence and his6 tail (protein)
chain: MRGSGIMVRPLNSIVAVSQNMGIGKNGDLPWPPLRNEFKYFQRMTTTSSVEGKQNLVIMGRKTWFSIPEKNRPLKDRINIVLSRELKEPPRGAHFLAKSLDDALRLIEQPELASKVDMVWIVGGSSVYQEAMNQPGHLRLFVTRIMQEFESDTFFPEIDLGKYKLLPEYPGVLSEVQEEKGIKYKFEVYEKKGSRSARLLLSGIVQQQNNLLRAIEAQQHMLQLTAWGIKQLRARLQALETLMQNQQRLNSWGCKGRIICYTSARWHASWSNKSLEDIWDNMTWMQWDQQVNNVSSIIYDKILEAQDQQEENVRELLELDKWASLWNWFDITNWLWYIKIFIMIVGPEQKLISEEDLNSAVDHHHHHH
modifications: HIV Consensus
B1 gave an OD492 (group O antibody; sample ODS001 (dilution)) of 1.179 OD, an OD492 (group O antibody; sample ODS002 (dilution)) of 1.323 OD and an OD492 (group O antibody; sample neg. control 1) of −0.061 OD. For the same molecule, the OD492 (type B sample) was 0.685 OD.
